From patent US20060193893A1, “Medical devices” (ChemGenex Pharmaceuticals, Inc., priority 2005, published 2006)
Marks after values point to notes of the source that are not given here.

Tested on: chorioallantoic membrane (CAM)
Assay: Effects of homoharringtonine in the early chicken chorioallantoic membrane (CAM) assay
Format: in vivo
Details: for CAM area, Day 4: Day 4 (start of treatment, matched groups); for CAM area, Day 4 / CAM increase (fold) / Artery length / CAM area, Day 5 / Relative artery length / Relative total vessel length / Relative vein length / Total vessel length / Vein length: mean ± SEM, n = 6; for CAM increase (fold): Day 4 to Day 5; for Artery length / CAM area, Day 5 / Relative artery length / Relative total vessel length / Relative vein length / Total vessel length / Vein length: Day 5
Procedure: Fertilized chicken eggs (HiChick Breeding Co, Kapunda, South Australia) were incubated for three days at 38° C. On Day 3 the embryos were cracked out of the egg and into a cup made of plastic piping, with plastic film stretched over the top to form a hammock for the egg to be suspended in. Two ml of DMEM containing penicillin and streptomycin was added to each cup prior to the egg being added. A Petri dish on the top maintained sterility. Incubation continued in a humidified 37° C. incubator.
On Day 4 the chorioallantoic membrane (CAM) begins to grow, and pictures were taken of each embryo at ×5 to measure the CAM area using image analysis software (Video Pro 32, Leading Edge Pty Ltd, South Australia). Embryos were then grouped according to their CAM area, with a control embryo in each for comparison. There were four matched embryos, treated with 6.25, 12.5 and 25 ng of homoharringtonine. Grouping is critical as in these early developmental stages changes in the CAM growth are dramatic. Relatively small differences in size on Day 4 translate to large differences in the CAM on Day 5, making it impossible to compare treatments. Substances were applied in methylcellulose discs, which were first dried under vacuum overnight. The methylcellulose discs were applied to the top of the CAM, and at the beginning of treatment were at least three to four-fold bigger than the CAM area, meaning treatment covered the entire CAM surface.
On Day 5 skim milk with contrast medium was injected into the CAM. Pictures were then taken at various levels of magnification up to ×63. Quantitative measurements were made from ×5 pictures. CAM area, and vein and artery lengths were measured using image analysis (Video Pro 32, Leading Edge Pty Ltd, South Australia). Relative vessel lengths were then calculated as the total length/CAM area. Statistical analysis was made using SigmaStat and OneWay ANOVA with p<0.05 as the level of significance.
FIG. 3A illustrates the normal organization of the CAM is uniform, with the major vein draining towards the left, and the artery branches coming over the edge of the top and bottom of the CAM. FIGS. 3B and 3C schematically illustrate tracing of the vein and artery branches, as performed for the measurement of vessel lengths.
The angiogenic inhibitor, homoharringtonine, was obtained from ChemGenex Therapeutics, Inc. (Menlo Park, Calif.) and was made to the appropriate concentration in sterile water. […] Homoharringtonine was applied at 6.25, 12.5 and 25 ng (11.3, 22.5 and 45 nM) doses, and compared with water treated controls. Homoharringtonine reduced the growth of the CAM to 42% of the control in the 25 ng treated CAM. […] The vein, artery and total vessel lengths were reduced to 15%, 18% and 17% of control, respectively.

SMILES: CC(=O)O[C@H]1C(=O)[C@@]2(C)[C@H]([C@H](OC(=O)c3ccccc3)[C@]3(O)C[C@H](OC(=O)[C@H](O)[C@@H](NC(=O)c4ccccc4)c4ccccc4)C(C)=C1C3(C)C)[C@]1(OC(C)=O)CO[C@@H]1C[C@@H]2O [taxol]
- qualitative changes at higher magnification (FIG. 5) (homoharringtonine 25 ng, taxol dose not given, vs water control): diffuse leakage of the red blood cells outside the vessels and the skeletons of larger vessels with no remaining blood flow

SMILES: COC(=O)C[C@](O)(CCCC(C)(C)O)C(=O)O[C@@H]1C(OC)=C[C@]23CCCN2CCc2cc4c(cc2[C@H]13)OCO4 [Homoharringtonine, cephalotaxine, 4-methyl-2-hydroxy-2-(4-hydroxy-4-methylpentyl) butanediocate ester]
- CAM area, Day 4 (6.25 ng in methylcellulose disc): 6.5 ± 1.6 pixels
- CAM increase (fold) (6.25 ng): 7.0 ± 0.4 ^a fold
- Artery length (6.25 ng): 1573 ± 516^ pixels
- CAM area, Day 5 (6.25 ng): 45.3 ± 11.6 pixels
- Relative artery length (6.25 ng): 31.6 ± 4.5 ^a b length/CAM area
- Relative total vessel length (6.25 ng): 63.2 ± 7.7 ^b length/CAM area
- Relative vein length (6.25 ng): 31.6 ± 4.6 ^b length/CAM area
- Total vessel length (6.25 ng): 3055 ± 1003 pixels
- Vein length (6.25 ng): 1482 ± 499^ pixels
- CAM area, Day 4 (12.5 ng in methylcellulose disc): 6.3 ± 1.6^ pixels
- CAM increase (fold) (12.5 ng): 9.0 ± 1.0 ^b fold
- Artery length (12.5 ng): 1787 ± 544 ^ pixels
- CAM area, Day 5 (12.5 ng): 53.0 ± 11.6^ pixels
- Relative total vessel length (12.5 ng): 60.1 ± 7.5 ^b length/CAM area
- Relative vein length (12.5 ng): 28.3 ± 4.4 ^b length/CAM area
- Total vessel length (12.5 ng): 3351 ± 953 ^ pixels
- Vein length (12.5 ng): 1564 ± 427 ^ pixels
- embryo survival at 25 ng (25 ng dose): killed one of the smaller embryos
- artery length, % of control (25 ng group vs water control): 18%
- total vessel length, % of control (25 ng group vs water control): 17%
- vein length, % of control (25 ng group vs water control): 15%
- CAM area, Day 4 (25 ng in methylcellulose disc): 6.2 ± 1.5 pixels
- growth of the CAM, % of the control (25 ng treated CAM vs water control): 42%
- CAM increase (fold) (25 ng): 4.3 ± 0.7 ^a fold
- Artery length (25 ng): 551 ± 265 ^a pixels
- CAM area, Day 5 (25 ng): 30.2 ± 9.9 ^ pixels
- Relative artery length (25 ng): 13.0 ± 4.3 ^a length/CAM area
- Relative total vessel length (25 ng): 24.3 ± 6.7 ^a length/CAM area
- Relative vein length (25 ng): 11.3 ± 3.5 ^a length/CAM area
- Total vessel length (25 ng): 909 ± 396 ^a pixels
- Vein length (25 ng): 359 ± 143 ^a pixels
- embryo survival at the initial doses (initial doses, above 25 ng, dose then reduced): resulted in the death of the embryos
